Reference: patent US10780074B2, “Compounds and uses thereof” (Sunovion Pharmaceuticals Inc., priority 2017, dated 2020)
Where a name gives a salt, the structure may show the parent alone.

Tested on: behaviors of compound-treated mice
Test: Neuropharmacological Assay (SmartCube)
Format: in vivo
Settings: for minimal effective dose: Mus musculus, ip, 0.25 h, dose having 50% or more total activity in SmartCube, i.p., read-out: MED (minimal effective dose); for AD: ADHD (probability that activity matches class) / AG: analgesic (probability that activity matches class) / AX: anxiolytic (probability that activity matches class) / CE: cognitive enhancer (probability that activity matches class) / DP: anti-depressant (probability that activity matches class) / MS: mood stabilizer (probability that activity matches class) / PS: anti-psychotic (probability that activity matches class) / SD: sedative hypnotic (probability that activity matches class) / UN: uncharacterized CNS activity (probability that activity matches class): i.p. 15 min before behavioral test, most efficacious dose(s) of 3 doses
How it was run: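 Behavioral signatures were captured automatically by video, and each drug class received a probability for the best of three i.p. doses given 15 min pre-test (vehicle: Pharmasolve/PEG/propylene glycol). Potency is given as MED, the lowest mpk dose (typically 0.3–30) reaching 50% or more total activity.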

NC[C@@H]1OCCCc2c(-c3cncs3)cccc21 (single isomer, unassigned) [Compound 170, hydrochloride salt]
minimal effective dose: 3 to 10 mg/kg | AD: ADHD (probability that activity matches class): + (LOQ ≤ + <5%) | AG: analgesic (probability that activity matches class): + (LOQ ≤ + <5%) | AX: anxiolytic (probability that activity matches class): ++ (5% ≤ ++ <25%) | CE: cognitive enhancer (probability that activity matches class): + (LOQ ≤ + <5%) | DP: anti-depressant (probability that activity matches class): ++ (5% ≤ ++ <25%) | MS: mood stabilizer (probability that activity matches class): + (LOQ ≤ + <5%) | PS: anti-psychotic (probability that activity matches class): + (LOQ ≤ + <5%) | SD: sedative hypnotic (probability that activity matches class): ++ (5% ≤ ++ <25%) | UN: uncharacterized CNS activity (probability that activity matches class): +++ (25% ≤ +++ <50%)

NC[C@@H]1OCc2c(-c3ccncc3)cccc21 (single isomer, unassigned) [Compound 37, hydrochloride salt]
minimal effective dose: 10 to 30 mg/kg | AD: ADHD (probability that activity matches class): ++ (5% ≤ ++ <25%) | AG: analgesic (probability that activity matches class): ++ (5% ≤ ++ <25%) | AX: anxiolytic (probability that activity matches class): ++ (5% ≤ ++ <25%) | CE: cognitive enhancer (probability that activity matches class): + (LOQ ≤ + <5%) | DP: anti-depressant (probability that activity matches class): +++ (25% ≤ +++ <50%) | MS: mood stabilizer (probability that activity matches class): + (LOQ ≤ + <5%) | PS: anti-psychotic (probability that activity matches class): + (LOQ ≤ + <5%) | SD: sedative hypnotic (probability that activity matches class): + (LOQ ≤ + <5%) | UN: uncharacterized CNS activity (probability that activity matches class): + (LOQ ≤ + <5%)

NC[C@H]1OCCCc2c(-c3cncs3)cccc21 (single isomer, unassigned) [Compound 171, hydrochloride salt]
minimal effective dose: 10 to 30 mg/kg | AD: ADHD (probability that activity matches class): + (LOQ ≤ + <5%) | AG: analgesic (probability that activity matches class): + (LOQ ≤ + <5%) | AX: anxiolytic (probability that activity matches class): + (LOQ ≤ + <5%) | CE: cognitive enhancer (probability that activity matches class): + (LOQ ≤ + <5%) | DP: anti-depressant (probability that activity matches class): + (LOQ ≤ + <5%) | MS: mood stabilizer (probability that activity matches class): + (LOQ ≤ + <5%) | PS: anti-psychotic (probability that activity matches class): + (LOQ ≤ + <5%) | SD: sedative hypnotic (probability that activity matches class): + (LOQ ≤ + <5%) | UN: uncharacterized CNS activity (probability that activity matches class): + (LOQ ≤ + <5%)

CNC[C@H]1OCCc2cc(-c3cccnc3)ccc21 [Compound 6, (S)-N-methyl(6-(pyridin-3-yl)isochroman-1-yl)methanamine bis-hydrochloride]
minimal effective dose: 10 to 30 mg/kg | AD: ADHD (probability that activity matches class): + (LOQ ≤ + <5%) | AG: analgesic (probability that activity matches class): ++ (5% ≤ ++ <25%) | AX: anxiolytic (probability that activity matches class): ++ (5% ≤ ++ <25%) | CE: cognitive enhancer (probability that activity matches class): ++ (5% ≤ ++ <25%) | DP: anti-depressant (probability that activity matches class): +++ (25% ≤ +++ <50%) | MS: mood stabilizer (probability that activity matches class): + (LOQ ≤ + <5%) | PS: anti-psychotic (probability that activity matches class): ++ (5% ≤ ++ <25%) | SD: sedative hypnotic (probability that activity matches class): + (LOQ ≤ + <5%) | UN: uncharacterized CNS activity (probability that activity matches class): + (LOQ ≤ + <5%)

CNC[C@H]1OCCc2c(-c3cnoc3)cccc21 (single isomer, unassigned) [Compound 85, hydrochloride salt]
minimal effective dose: ≤ 3 mg/kg | AD: ADHD (probability that activity matches class): ++ (5% ≤ ++ <25%) | AG: analgesic (probability that activity matches class): + (LOQ ≤ + <5%) | AX: anxiolytic (probability that activity matches class): ++ (5% ≤ ++ <25%) | CE: cognitive enhancer (probability that activity matches class): + (LOQ ≤ + <5%) | DP: anti-depressant (probability that activity matches class): ++++ (50% ≤ ++++) | MS: mood stabilizer (probability that activity matches class): + (LOQ ≤ + <5%) | PS: anti-psychotic (probability that activity matches class): + (LOQ ≤ + <5%) | SD: sedative hypnotic (probability that activity matches class): + (LOQ ≤ + <5%) | UN: uncharacterized CNS activity (probability that activity matches class): ++ (5% ≤ ++ <25%)

CNC[C@@H]1OCc2c(-c3ccncc3)cccc21 (single isomer, unassigned) [Compound 39, hydrochloride salt]
minimal effective dose: ≤ 3 mg/kg | AD: ADHD (probability that activity matches class): ++ (5% ≤ ++ <25%) | AG: analgesic (probability that activity matches class): + (LOQ ≤ + <5%) | AX: anxiolytic (probability that activity matches class): ++ (5% ≤ ++ <25%) | CE: cognitive enhancer (probability that activity matches class): + (LOQ ≤ + <5%) | DP: anti-depressant (probability that activity matches class): ++++ (50% ≤ ++++) | MS: mood stabilizer (probability that activity matches class): + (LOQ ≤ + <5%) | PS: anti-psychotic (probability that activity matches class): + (LOQ ≤ + <5%) | SD: sedative hypnotic (probability that activity matches class): ++ (5% ≤ ++ <25%) | UN: uncharacterized CNS activity (probability that activity matches class): + (LOQ ≤ + <5%)

CNC[C@@H]1OCCc2c(-c3ccccn3)cccc21 (single isomer, unassigned) [Compound 43, hydrochloride salt]
minimal effective dose: 10 to 30 mg/kg | AD: ADHD (probability that activity matches class): + (LOQ ≤ + <5%) | AG: analgesic (probability that activity matches class): + (LOQ ≤ + <5%) | AX: anxiolytic (probability that activity matches class): ++ (5% ≤ ++ <25%) | CE: cognitive enhancer (probability that activity matches class): + (LOQ ≤ + <5%) | DP: anti-depressant (probability that activity matches class): ++ (5% ≤ ++ <25%) | MS: mood stabilizer (probability that activity matches class): + (LOQ ≤ + <5%) | PS: anti-psychotic (probability that activity matches class): + (LOQ ≤ + <5%) | SD: sedative hypnotic (probability that activity matches class): + (LOQ ≤ + <5%) | UN: uncharacterized CNS activity (probability that activity matches class): +++ (25% ≤ +++ <50%)

NCC1OCCc2c(-c3ccncn3)cccc21 (stereo not shown) [Compound 60, (5-(Pyrimidin-4-yl)isochroman-1-yl)methanamine hydrochloride salt]
minimal effective dose: 3 to 10 mg/kg | AD: ADHD (probability that activity matches class): + (LOQ ≤ + <5%) | AG: analgesic (probability that activity matches class): ++ (5% ≤ ++ <25%) | AX: anxiolytic (probability that activity matches class): ++ (5% ≤ ++ <25%) | CE: cognitive enhancer (probability that activity matches class): + (LOQ ≤ + <5%) | DP: anti-depressant (probability that activity matches class): ++++ (50% ≤ ++++) | MS: mood stabilizer (probability that activity matches class): + (LOQ ≤ + <5%) | PS: anti-psychotic (probability that activity matches class): + (LOQ ≤ + <5%) | SD: sedative hypnotic (probability that activity matches class): + (LOQ ≤ + <5%) | UN: uncharacterized CNS activity (probability that activity matches class): + (LOQ ≤ + <5%)

NCC1OCCc2c(-c3cncs3)cccc21 (stereo not shown) [Compound 59, (5-(Thiazol-5-yl)isochroman-1-yl)methanamine hydrochloride salt]
minimal effective dose: ≤ 3 mg/kg | AD: ADHD (probability that activity matches class): ++ (5% ≤ ++ <25%) | AG: analgesic (probability that activity matches class): ++ (5% ≤ ++ <25%) | AX: anxiolytic (probability that activity matches class): ++ (5% ≤ ++ <25%) | CE: cognitive enhancer (probability that activity matches class): + (LOQ ≤ + <5%) | DP: anti-depressant (probability that activity matches class): ++++ (50% ≤ ++++) | MS: mood stabilizer (probability that activity matches class): + (LOQ ≤ + <5%) | PS: anti-psychotic (probability that activity matches class): + (LOQ ≤ + <5%) | SD: sedative hypnotic (probability that activity matches class): +++ (25% ≤ +++ <50%) | UN: uncharacterized CNS activity (probability that activity matches class): ++ (5% ≤ ++ <25%)

CNC[C@@H]1OCCc2c(-c3ccno3)cccc21 [Compound 94, (R)-1-(5-(Isoxazol-5-yl)isochroman-1-yl)-N-methylmethanamine]
minimal effective dose: 10 to 30 mg/kg | AD: ADHD (probability that activity matches class): + (LOQ ≤ + <5%) | AG: analgesic (probability that activity matches class): + (LOQ ≤ + <5%) | AX: anxiolytic (probability that activity matches class): + (LOQ ≤ + <5%) | CE: cognitive enhancer (probability that activity matches class): + (LOQ ≤ + <5%) | DP: anti-depressant (probability that activity matches class): + (LOQ ≤ + <5%) | MS: mood stabilizer (probability that activity matches class): + (LOQ ≤ + <5%) | PS: anti-psychotic (probability that activity matches class): + (LOQ ≤ + <5%) | SD: sedative hypnotic (probability that activity matches class): + (LOQ ≤ + <5%) | UN: uncharacterized CNS activity (probability that activity matches class): + (LOQ ≤ + <5%)

CNC[C@@H]1OCCc2c(-c3c[nH]cn3)cccc21 (single isomer, unassigned) [Compound 114, hydrochloride salt]
minimal effective dose: 10 to 30 mg/kg | AD: ADHD (probability that activity matches class): + (LOQ ≤ + <5%) | AG: analgesic (probability that activity matches class): + (LOQ ≤ + <5%) | AX: anxiolytic (probability that activity matches class): ++ (5% ≤ ++ <25%) | CE: cognitive enhancer (probability that activity matches class): + (LOQ ≤ + <5%) | DP: anti-depressant (probability that activity matches class): + (LOQ ≤ + <5%) | MS: mood stabilizer (probability that activity matches class): + (LOQ ≤ + <5%) | PS: anti-psychotic (probability that activity matches class): + (LOQ ≤ + <5%) | SD: sedative hypnotic (probability that activity matches class): + (LOQ ≤ + <5%) | UN: uncharacterized CNS activity (probability that activity matches class): + (LOQ ≤ + <5%)

CNC[C@H]1OCCc2c(-c3ccccn3)cccc21 (single isomer, unassigned) [Compound 44, hydrochloride salt]
minimal effective dose: ≤ 3 mg/kg | AD: ADHD (probability that activity matches class): + (LOQ ≤ + <5%) | AG: analgesic (probability that activity matches class): ++ (5% ≤ ++ <25%) | AX: anxiolytic (probability that activity matches class): ++ (5% ≤ ++ <25%) | CE: cognitive enhancer (probability that activity matches class): + (LOQ ≤ + <5%) | DP: anti-depressant (probability that activity matches class): ++++ (50% ≤ ++++) | MS: mood stabilizer (probability that activity matches class): + (LOQ ≤ + <5%) | PS: anti-psychotic (probability that activity matches class): + (LOQ ≤ + <5%) | SD: sedative hypnotic (probability that activity matches class): + (LOQ ≤ + <5%) | UN: uncharacterized CNS activity (probability that activity matches class): + (LOQ ≤ + <5%)

NC[C@@H]1OCCc2ccc(-c3ccncc3)cc21 [Compound 47, (R)-(7-(pyridin-4-yl)isochroman-1-yl)methanamine hydrochloride]
minimal effective dose: 3 to 10 mg/kg | AD: ADHD (probability that activity matches class): + (LOQ ≤ + <5%) | AG: analgesic (probability that activity matches class): + (LOQ ≤ + <5%) | AX: anxiolytic (probability that activity matches class): ++ (5% ≤ ++ <25%) | CE: cognitive enhancer (probability that activity matches class): + (LOQ ≤ + <5%) | DP: anti-depressant (probability that activity matches class): ++++ (50% ≤ ++++) | MS: mood stabilizer (probability that activity matches class): + (LOQ ≤ + <5%) | PS: anti-psychotic (probability that activity matches class): ++ (5% ≤ ++ <25%) | SD: sedative hypnotic (probability that activity matches class): + (LOQ ≤ + <5%) | UN: uncharacterized CNS activity (probability that activity matches class): + (LOQ ≤ + <5%)
